≈ marks a conversion by molar mass, not a printed value. Like-named read-outs stand apart in the source and are kept apart here.
What was measured:
Assay in all cases: MIC, standard serial dilution method
Assay type in all cases: cell-based
Escherichia coli K-12 R5 = conditions: K12R5, pH 7
Protocol: (§1) Antibacterial activities of each of the abovementioned compounds of the general formula (I) according to this invention were determined by measuring their minimum growth inhibitory concentrations (MIC, mcg/ml) against various bacteria in accordance with a standard serial dilution method. The pH condition of the incubation medium where the MIC data were measured was set at pH 7, unless otherwise specifically indicated. For the sake of comparison, the antibacterial spectra of 1-N-{(S)-4-amino-2-hydroxybutyryl}kanamycin A (i.e., amikacin) and 1-N-{(S)-4-amino-2-hydroxybutyryl}-3,4-dideoxykanamycin B (i.e., habekacin) were also measured in the same manner.
Infectious diseases by Escherichia coli K-12 R5 tend to increase in recent days. The compounds of this invention are therefore important for the therapeutic treatment of bacterial infections.

Bacillus subtilis PCI219 = conditions: PCI219, pH 7, read-out: MIC
Protocol: as §1

[1] = system: Staphylococcus aureus Ap01; conditions: AP01, pH 7, read-out: MIC
Protocol: as §1

Serratia marcescens = conditions: pH 7, read-out: MIC
Protocol: as §1

Escherichia coli JR 225 = conditions: JR225, pH 7
Protocol: as §1

[2] = system: Pseudomonas aeruginosa A3; conditions: A3, pH 7, read-out: MIC
Protocol: as §1

[3] = system: Escherichia coli K-12 LA 290 R55; conditions: K12LA290R55, pH 7
Protocol: as §1

[4] = system: Escherichia coli K-12 ML 1629; conditions: K12ML1629, pH 7, read-out: MIC
Protocol: as §1

[5] = system: Staphylococcus aureus 209P; conditions: pH 7, read-out: MIC
Protocol: as §1

Providencia sp. Pv 16 = conditions: SP.PV16, pH 7, read-out: MIC
Protocol: as §1

Mycobacterium 607 = conditions: Mycobacterium, 607, pH 7; read-out: MIC
Protocol: as §1

Escherichia coli K-12 = conditions: K12, pH 7
Protocol: as §1

[6] = system: Klebsiella pneumoniae 22 #3038; conditions: pH 7, read-out: MIC
Protocol: as §1

[7] = system: Corynebacterium bovis 1810; conditions: Corynebacterium bovis, 1810, pH 7; read-out: MIC
Protocol: as §1

[8] = system: Pseudomonas aeruginosa GN 315; conditions: GN315, pH 7
Protocol: as §1

Proteus rettgeri GN 311 = conditions: Providencia rettgeri, GN311, pH 7; read-out: MIC
Protocol: as §1

[9] = system: Escherichia coli JR66/W677; conditions: Escherichia coli, read-out: MIC
Protocol: as §1
(§2) (a) The antibacterial activities of the compounds of this invention are not decreased practically even under pH conditions of pH […] as compared to their antibacterial activities under neutral conditions of pH 7.

[10] = system: Pseudomonas aeruginosa TI 13; conditions: Pseudomonas aeruginosa, read-out: MIC
Protocol: as §1, §2

## NC[C@@H](F)[C@H](O)C(=O)N[C@@H]1C[C@H](N)[C@@H](O[C@H]2O[C@H](CN)[C@@H](O)C[C@H]2N)[C@H](F)[C@H]1O[C@H]1O[C@H](CO)[C@@H](O)[C@H](N)[C@H]1O [Invention Compound No. 9, 1-N-{(2R,3R)-4-Amino-3-fluoro-2-hydroxybutyryl}-5,3'-dideoxy-5-fluorokanamycin B]
Escherichia coli K-12 R5
  MIC: 3.12 µg/mL (≈ 5.3 µM)
Bacillus subtilis PCI219
  MIC: < 0.2 µg/mL
[1]
  MIC: 0.78 µg/mL (≈ 1.33 µM)
Serratia marcescens
  MIC: 3.12 µg/mL (≈ 5.3 µM)
Escherichia coli JR 225
  MIC: 0.2 µg/mL (≈ 0.34 µM)
[2]
  MIC: 0.2 µg/mL (≈ 0.34 µM)
[3]
  MIC: 0.39 µg/mL (≈ 0.663 µM)
[4]
  MIC: 0.78 µg/mL (≈ 1.33 µM)
[5]
  MIC: 0.39 µg/mL (≈ 0.663 µM)
Providencia sp. Pv 16
  MIC: 0.78 µg/mL (≈ 1.33 µM)
Mycobacterium 607
  MIC: 1.56 µg/mL (≈ 2.65 µM)
Escherichia coli K-12
  MIC: < 0.2 µg/mL
[6]
  MIC: 0.78 µg/mL (≈ 1.33 µM)
[7]
  MIC: < 0.2 µg/mL
[8]
  MIC: 3.12 µg/mL (≈ 5.3 µM)
Proteus rettgeri GN 311
  MIC: 0.2 µg/mL (≈ 0.34 µM)
[9]; JR66/W677, pH 7
  MIC: 0.39 µg/mL (≈ 0.663 µM)
[9]; JR66/W677, measured at pH 6
  MIC: 1.56 µg/mL (≈ 2.65 µM)
[10]; TI13, pH 7
  MIC: 0.78 µg/mL (≈ 1.33 µM)
[10]; TI13, measured at pH 6
  MIC: 3.12 µg/mL (≈ 5.3 µM)

## NC[C@@H]1CC[C@@H](N)[C@@H](O[C@H]2[C@H](F)[C@@H](O[C@H]3O[C@H](CO)[C@@H](O)[C@H](N)[C@H]3O)[C@H](NC(=O)[C@@H](O)[C@H](F)CN)C[C@@H]2N)O1 [Invention Compound No. 10, 1-N-{(2R,3R)-4-Amino-3-fluoro-2-hydroxybutyryl}-5,3',4'-trideoxy-5-fluorokanamycin B]
Escherichia coli K-12 R5
  MIC: 3.12 µg/mL (≈ 5.45 µM)
Bacillus subtilis PCI219
  MIC: 0.2 µg/mL (≈ 0.349 µM)
[1]
  MIC: 0.78 µg/mL (≈ 1.36 µM)
Serratia marcescens
  MIC: 1.56 µg/mL (≈ 2.72 µM)
Escherichia coli JR 225
  MIC: < 0.2 µg/mL
[2]
  MIC: < 0.2 µg/mL
[3]
  MIC: 0.39 µg/mL (≈ 0.681 µM)
[4]
  MIC: 0.39 µg/mL (≈ 0.681 µM)
[5]
  MIC: 0.39 µg/mL (≈ 0.681 µM)
Providencia sp. Pv 16
  MIC: 0.78 µg/mL (≈ 1.36 µM)
Mycobacterium 607
  MIC: 0.78 µg/mL (≈ 1.36 µM)
Escherichia coli K-12
  MIC: 0.2 µg/mL (≈ 0.349 µM)
[6]
  MIC: 0.78 µg/mL (≈ 1.36 µM)
[7]
  MIC: < 0.2 µg/mL
[8]
  MIC: 3.12 µg/mL (≈ 5.45 µM)
Proteus rettgeri GN 311
  MIC: < 0.2 µg/mL
[9]; JR66/W677, pH 7
  MIC: 0.39 µg/mL (≈ 0.681 µM)
[9]; JR66/W677, measured at pH 6
  MIC: 1.56 µg/mL (≈ 2.72 µM)
[10]; TI13, pH 7
  MIC: 0.78 µg/mL (≈ 1.36 µM)
[10]; TI13, measured at pH 6
  MIC: 3.12 µg/mL (≈ 5.45 µM)

## NC[C@@H](F)[C@H](O)C(=O)N[C@@H]1C[C@H](N)[C@@H](O[C@H]2O[C@H](CN)[C@@H](O)C[C@H]2F)[C@H](O)[C@H]1O[C@H]1O[C@H](CO)[C@@H](O)[C@H](N)[C@H]1O [Invention Compound No. 3, 1-N-{(2R,3R)-4-Amino-3-fluoro-2-hydroxybutyryl}-2',3'-dideoxy-2'-fluorokanamycin A]
Escherichia coli K-12 R5
  MIC: 6.25 µg/mL (≈ 10.6 µM)
Bacillus subtilis PCI219
  MIC: 0.39 µg/mL (≈ 0.661 µM)
[1]
  MIC: 1.56 µg/mL (≈ 2.65 µM)
Serratia marcescens
  MIC: 1.56 µg/mL (≈ 2.65 µM)
Escherichia coli JR 225
  MIC: 0.39 µg/mL (≈ 0.661 µM)
[2]
  MIC: 0.78 µg/mL (≈ 1.32 µM)
[3]
  MIC: 0.78 µg/mL (≈ 1.32 µM)
[4]
  MIC: 0.39 µg/mL (≈ 0.661 µM)
[5]
  MIC: 0.78 µg/mL (≈ 1.32 µM)
Providencia sp. Pv 16
  MIC: 0.78 µg/mL (≈ 1.32 µM)
Mycobacterium 607
  MIC: 0.78 µg/mL (≈ 1.32 µM)
Escherichia coli K-12
  MIC: 0.2 µg/mL (≈ 0.339 µM)
[6]
  MIC: 0.78 µg/mL (≈ 1.32 µM)
[7]
  MIC: 0.78 µg/mL (≈ 1.32 µM)
[8]
  MIC: 12.5 µg/mL (≈ 21.2 µM)
Proteus rettgeri GN 311
  MIC: 0.78 µg/mL (≈ 1.32 µM)
[9]; JR66/W677, pH 7
  MIC: 0.78 µg/mL (≈ 1.32 µM)
[9]; JR66/W677, measured at pH 6
  MIC: 1.56 µg/mL (≈ 2.65 µM)
[10]; TI13, pH 7
  MIC: 3.12 µg/mL (≈ 5.29 µM)
[10]; TI13, measured at pH 6
  MIC: 3.12 µg/mL (≈ 5.29 µM)

## NC[C@@H]1CC[C@@H](N)[C@@H](O[C@H]2[C@H](O)[C@@H](O[C@H]3O[C@H](CO)[C@@H](O)[C@H](N)[C@H]3O)[C@H](NC(=O)[C@@H](O)[C@H](F)CN)C[C@@H]2N)O1 [Invention Compound No. 7, 1-N-{(2R,3R)-4-Amino-3-fluoro-2-hydroxybutyryl}-3',4'-dideoxykanamycin B]
Escherichia coli K-12 R5
  MIC: 3.12 µg/mL (≈ 5.47 µM)
Bacillus subtilis PCI219
  MIC: < 0.2 µg/mL
[1]
  MIC: 0.78 µg/mL (≈ 1.37 µM)
Serratia marcescens
  MIC: 3.12 µg/mL (≈ 5.47 µM)
Escherichia coli JR 225
  MIC: 0.78 µg/mL (≈ 1.37 µM)
[2]
  MIC: 0.39 µg/mL (≈ 0.683 µM)
[3]
  MIC: 0.39 µg/mL (≈ 0.683 µM)
[4]
  MIC: 0.78 µg/mL (≈ 1.37 µM)
[5]
  MIC: < 0.2 µg/mL
Providencia sp. Pv 16
  MIC: 0.78 µg/mL (≈ 1.37 µM)
Mycobacterium 607
  MIC: 0.78 µg/mL (≈ 1.37 µM)
Escherichia coli K-12
  MIC: < 0.2 µg/mL
[6]
  MIC: 0.78 µg/mL (≈ 1.37 µM)
[7]
  MIC: < 0.2 µg/mL
[8]
  MIC: 3.12 µg/mL (≈ 5.47 µM)
Proteus rettgeri GN 311
  MIC: < 0.2 µg/mL
[9]; JR66/W677, pH 7
  MIC: 0.78 µg/mL (≈ 1.37 µM)
[9]; JR66/W677, measured at pH 6
  MIC: 1.56 µg/mL (≈ 2.73 µM)
[10]; TI13, pH 7
  MIC: 0.78 µg/mL (≈ 1.37 µM)
[10]; TI13, measured at pH 6
  MIC: 1.56 µg/mL (≈ 2.73 µM)
